Assay results reported in the NIST ThermoML archive (doi:10.1016/j.fluid.2008.03.012).

Test: excess molar enthalpy (molar enthalpy of mixing); xn = mol fraction of the nth substance listed
Conditions: Liquid, Flow calorimetry

CCOC(=O)CC(C)=O [ethyl 3-oxobutanoate] + CCCO
excess molar enthalpy [kcal/mol]
Conditions	298.15 K	313.15 K	328.15 K
100 kPa, x1 = 0.1001	0.208	0.237	0.256
100 kPa, x1 = 0.1998	0.324	0.378	0.414
100 kPa, x1 = 0.3003	0.396	0.464	0.509
100 kPa, x1 = 0.3502	0.42	0.493	0.539
100 kPa, x1 = 0.3994	0.436	0.512	0.558
100 kPa, x1 = 0.4501	0.446	0.522	0.565
100 kPa, x1 = 0.4997	0.45	0.524	0.564
100 kPa, x1 = 0.5505	0.446	0.517	0.553
100 kPa, x1 = 0.5997	0.435	0.501	0.532
100 kPa, x1 = 0.6497	0.417	0.475	0.504
100 kPa, x1 = 0.7007	0.39	0.441	0.462
100 kPa, x1 = 0.7996	0.307	0.341	0.351
100 kPa, x1 = 0.9004	0.175	0.187	0.193
10000 kPa, x1 = 0.1003	0.204	0.229	0.254
10000 kPa, x1 = 0.2001	0.318	0.364	0.407
10000 kPa, x1 = 0.3007	0.389	0.45	0.503
10000 kPa, x1 = 0.3506	0.412	0.474	0.533
10000 kPa, x1 = 0.3998	0.427	0.492	0.552
10000 kPa, x1 = 0.4505	0.436	0.502	0.563
10000 kPa, x1 = 0.5001	0.439	0.503	0.563
10000 kPa, x1 = 0.5509	0.435	0.498	0.552
10000 kPa, x1 = 0.6	0.425	0.483	0.53
10000 kPa, x1 = 0.6501	0.407	0.457	0.502
10000 kPa, x1 = 0.701	0.38	0.421	0.461
10000 kPa, x1 = 0.7999	0.3	0.322	0.35
10000 kPa, x1 = 0.9005	0.17	0.179	0.19
